Reference: PubChem BioAssay (NCI)
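Each compound was tested at five concentrations against cells in 96-well plates for 48 hours. The concentration for full growth arrest is given as TGI.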

Legend:
Test in all cases: NCI anticancer screen, dose series, 48 h
[1] = system: NCI-H226 lung
[2] = system: MDA-N
[3] = system: SK-MEL-5 melanoma
[4] = system: OVCAR-5 ovarian
[5] = system: HL-60(TB) leukemia
[6] = system: MALME-3M melanoma
[7] = system: NCI/ADR-RES ovarian
[8] = system: A498 renal
[9] = system: HS 578T breast
[10] = system: SNB-19 CNS
[11] = system: LOX IMVI melanoma
[12] = system: UO-31 renal
[13] = system: MCF7 breast
[14] = system: MDA-MB-231 breast
[15] = system: CCRF-CEM leukemia
[16] = system: HOP-62 NSCLC
[17] = system: HOP-92 NSCLC
[18] = system: SF-295 CNS
[19] = system: SF-539 CNS
[20] = system: HCT-15 colon
[21] = system: MOLT-4 leukemia
[22] = system: TK-10 renal
[23] = system: RXF 393 renal
[24] = system: HCC-2998 colon
[25] = system: A549 NSCLC
[26] = system: UACC-62 melanoma
[27] = system: SK-MEL-2 melanoma
[28] = system: NCI-H23 lung
[29] = system: SR leukemia
[30] = system: OVCAR-4 ovarian
[31] = system: NCI-H522 lung
[32] = system: OVCAR-3 ovarian
[33] = system: PC-3 prostate
[34] = system: SN12C renal
[35] = system: HCT-116 colon
[36] = system: RPMI-8226 leukemia
[37] = system: OVCAR-8 ovarian
[38] = system: NCI-H460 lung
[39] = system: MDA-MB-435
[40] = system: U251 CNS
[41] = system: EKVX NSCLC
[42] = system: UACC-257 melanoma
[43] = system: ACHN renal
[44] = system: IGROV1 ovarian
[45] = system: SNB-75 CNS
[46] = system: SK-MEL-28 melanoma
[47] = system: COLO 205 colon
[48] = system: DU-145 prostate
[49] = system: SF-268 CNS
[50] = system: CAKI-1 renal
[51] = system: SK-OV-3 ovarian
[52] = system: SW-620 colon
[53] = system: BT-549 breast
[54] = system: K-562 leukemia
[55] = system: HT29 colon
[56] = system: KM12 colon
[57] = system: 786-0 renal
[58] = system: T-47D breast
[59] = system: M14 melanoma

Measured: TGI

CCN(CC)Cc1ccc2cccnc2c1O
12.7 µM: [45]
41.8 µM: [35]
10 µM: [21]
18.5 µM: [20]
2.1 µM: [7]
59.7 µM: [24]
20.7 µM: [19]
12.8 µM: [55]
65.4 µM: [16]
49.7 µM: [2]
51.2 µM: [18]
47.2 µM: [34]
42 µM: [47]
25.1 µM: [51]
33.5 µM: [8]
80.1 µM: [27]
33.1 µM: [22]
3.28 µM: [31]
32.9 µM: [25]
45.5 µM: [4]
13.3 µM: [15]
7.01 µM: [37]
19.8 µM: [38]
11.4 µM: [32]
> 100 µM: [1] | [3] | [6] | [9] | [10] | [11] | [12] | [13] | [14] | [17] | [23] | [26] | [28] | [29] | [30] | [33] | [39] | [40] | [41] | [42] | [43] | [46] | [48] | [49] | [50] | [52] | [53] | [54]
18.4 µM: [44]
23.7 µM: [36]
75 µM: [5]

COC(=O)C(/C(=N/N)C(=O)Nc1cc(Cl)c(Cl)cc1Cl)c1nc2ccc(Cl)cc2[nH]c1=O (stereo not drawn)
> 100 µM: [1] | [2] | [3] | [4] | [5] | [6] | [7] | [56] | [8] | [9] | [11] | [12] | [13] | [14] | [16] | [17] | [18] | [19] | [20] | [22] | [23] | [25] | [26] | [57] | [27] | [28] | [29] | [30] | [31] | [32] | [33] | [34] | [35] | [36] | [37] | [38] | [39] | [40] | [41] | [42] | [43] | [44] | [45] | [46] | [58] | [49] | [50] | [51] | [52] | [53] | [54] | [59] | [55]
